The test system of data set [1] is MIA PaCa-2. In words: Antiproliferative activity against human MIA PaCa-2 cells harboring KRAS mutant assessed as reduction in cell proliferation incubated for 72 hrs by CCK-8 assay. Conditions: MIA PaCa-2, 72 h.
A further data set relates to CAPAN-1. In words: Antiproliferative activity against human CAPAN-1 cells harboring KRAS mutant assessed as reduction in cell proliferation incubated for 72 hrs by CCK-8 assay. Conditions: CAPAN-1, 72 h. In general terms: Tetrazolium assays rely on reduction of a dye to a coloured formazan, in cell work by metabolically active cells.
The subject of data set [2] is MIA PaCa-2. In words: Induction of apoptosis in human MIA PaCa-2 cells harboring KRAS mutant assessed as early apoptotic cells at 1 uM measured after 24 hrs by Annexin V-FITC/PI staining based flow cytometric analysis (Rvb= 4.62%). In kind it is functional. Background: Flow cytometry measures light scatter and fluorescence of single cells or particles in a stream.
Data set [3] has as its system MIA PaCa-2. In words: Induction of apoptosis in human MIA PaCa-2 cells harboring KRAS mutant assessed as late apoptotic cells at 1 uM measured after 24 hrs by Annexin V-FITC/PI staining based flow cytometric analysis (Rvb= 10.56%). In kind it is functional.
In data set [4] the test system is MIA PaCa-2. The data set is described as follows: Induction of apoptosis in human MIA PaCa-2 cells harboring KRAS mutant assessed as necrotic cells at 1 uM measured after 24 hrs by Annexin V-FITC/PI staining based flow cytometric analysis (Rvb= 0.3%). The class given is functional.
Data set [5] has as its system MIA PaCa-2. The data set is described as follows: Induction of apoptosis in human MIA PaCa-2 cells harboring KRAS mutant assessed as early apoptotic cells at 10 uM measured after 24 hrs by Annexin V-FITC/PI staining based flow cytometric analysis (Rvb= 4.62%). In kind it is functional.
Data set [6] has as its system MIA PaCa-2. In words: Induction of apoptosis in human MIA PaCa-2 cells harboring KRAS mutant assessed as late apoptotic cells at 10 uM measured after 24 hrs by Annexin V-FITC/PI staining based flow cytometric analysis (Rvb= 10.56%). In kind it is functional.
The subject of data set [7] is MIA PaCa-2. In words: Induction of apoptosis in human MIA PaCa-2 cells harboring KRAS mutant assessed as necrotic cells at 10 uM measured after 24 hrs by Annexin V-FITC/PI staining based flow cytometric analysis (Rvb= 0.3%). In kind it is functional.
The subject of data set [8] is MIA PaCa-2. In words: Effect on PDEdelta mRNA expression in human MIA PaCa-2 cells measured after 24 hrs by RT-qPCR analysis. In kind it is functional, cell-based. On the technique in general: Real-time PCR tracks product formation cycle by cycle.
Data set [9] can be described thus: Drug localization in lysosome of human HeLa cells assessed as green fluorescence pretreated with compound for 2 hrs followed by probe administration and measured after 1.5 hrs by fluorescence imaging analysis. The class given is ADME, subcellular. Conditions: 3.5 h.
A short description of data set [10]: Drug uptake in lysosome of human HeLa cells assessed as drug fusion by measuring red fluorescence pretreated with compound for 2 hrs followed by probe administration and measured after 1.5 hrs by fluorescence imaging analysis. The class given is ADME, subcellular. Conditions: 3.5 h.

The source made the active and inactive calls. The rule behind the calls is not given here.

Broadly, the IC50 is the point on the concentration scale where inhibition reaches its midpoint.

As for `Cc1ccc(-n2nc3c(=O)n(CCCC(=O)NCCCCCCNC(=O)COc4c(Br)cc(/C=C5\C(=O)Nc6ccc(I)cc65)cc4Br)nc(C)c3c2C)cc1`, the concentration for half-maximal inhibition (IC50) in the data set with MIA PaCa-2 [1] came to 1.4 µM; in the data set with CAPAN-1, 0.8 µM. Further, the Activity in the data set with MIA PaCa-2 [2] came out at 3.8%; with MIA PaCa-2 [3], 18.43%; in the data set with MIA PaCa-2 [4], 0.43%; with MIA PaCa-2 [5], 9.76%; with MIA PaCa-2 [6] it was 23.49%; in the data set on MIA PaCa-2 [7] it was 11.64%. In addition, the result with MIA PaCa-2 [8] was inactive.

Turning to `Cc1ccc(-n2nc3c(=O)n(CCCC(=O)NCCOCCOCCNC(=O)COc4c(Br)cc(/C=C5\C(=O)Nc6ccc(I)cc65)cc4Br)nc(C)c3c2C)cc1`, the IC50 in the data set with MIA PaCa-2 [1] was determined as 25 µM; with CAPAN-1, 3.5 µM.

As for `O=C(COc1c(Br)cc(/C=C2\C(=O)Nc3ccc(I)cc32)cc1Br)NCCCOCCOCCOCCCNC(=S)Nc1ccc2c(c1)C(=O)OC21c2ccc(O)cc2Oc2cc(O)ccc21`, the Drug uptake result in data set [9] and in data set [10] was “Active” in each case.

(Values after ChEMBL document CHEMBL5357016, “Discovery of Novel PDEδ Autophagic Degraders: A Case Study of Autophagy-Tethering Compound (ATTEC)” (ACS Med Chem Lett, 2024).)
